From US9492450B2, “Inhibition of dynamin related protein 1 to promote cell death” (University of Pittsburgh—of the Commonwealth System of …, priority 2011, dated 2016)

What was measured:
MDA-MB-231 cells [1] = experiment: Caspase-3/7 activity assay (apoptosis); format: cell-based, human; conditions: 20 h
Experimental: FIG. 18. […] Multidrug-resistant MDA-MB-231 breast carcinoma cells were treated with increasing doses of mdivi-1 alone, a series of anticancer drugs alone, or the combination of increasing doses of anticancer drugs with 20 μM mdivi-1 for 20 h. Apoptosis was determined by measuring the activity of caspase-3/7. The drugs tested were platinum agent, cisplatin; antifolate agent, methotrexate; topoisomerase II inhibitor, etoposide; cytidine analog, gemcitabine; pyrimidine analog, 5-FU; alkylating agents, cyclophosphamide, MMS and MNNG; DNA crosslinking agent, MMC; DNA intercalating agent, doxorubicin; and antimitotic drug, paclitaxel.
FIG. 21A-F. Mdivi-1 enhances cisplatin sensitivity through Drp1-independent mechanisms. (A) Confirmation of the depletion of Drp1 in Drp1 knockout SV40-transformed MEF cells by western blot. (B) Drp1 wild-type (Drp1+/+) and knockout (Drp1−/−) MEF cells were treated as indicated for 20 h, and the number of apoptotic cells was determined by antibody recognizing cleaved caspase-3. […] (C) Drp1 wild-type and knockout MEF cells were treated with mdivi-1 for 24 h, and the cell number were determined by CyQuant assay. (D) OCR was measured after 1 h treatment of Drp1 wild-type and knockout MEF cells with DMSO or mdivi-1. (E) The combination effect of cisplatin with four analogs of mdivi-1. […]

[2] = Synergy with cisplatin, experiments not described
MDA-MB-231 cells [3] = experiment: DNA content flow cytometry (propidium iodide): G2/M arrest and aneuploidy; format: cell-based, human; conditions: 5 μg/ml oligomycin, 5 μM FCCP or 10 μg/ml antimycin A, 24 h
Drp1 = conditions: as said in Cassidy-Stone et al., Dev Cell 14:193-204; cited from earlier work

C[C@]1(c2nc3c(C(N)=O)cccc3[nH]2)CCCN1 [ABT-888]
apoptosis, alone and in combination with cisplatin (MDA-MB-231 cells [1]; series doses): resistant

O=C(N/N=C/c1ccc(O)c(O)c1)c1cc2ccccc2cc1O [Dynasore]
synergistic effect with cisplatin [2]: have not demonstrated a synergistic effect

N#CC(C#N)=NNc1ccc(OC(F)(F)F)cc1 [FCCP]
G2/M cell cycle arrest and aneuploidy (MDA-MB-231 cells [3]): did not induce G2/M cell cycle arrest and aneuploidy

CC[C@H]1/C=C/C=C/C[C@@H](C)[C@H](O)[C@@](C)(O)C(=O)[C@@H](C)[C@H](O)[C@@H](C)C(=O)[C@@H](C)[C@H](O)[C@@H](C)/C=C/C(=O)O[C@@H]2[C@H](C)[C@H](CC1)O[C@]1(CC[C@H](C)[C@H](C[C@@H](C)O)O1)[C@H]2C [oligomycin]
G2/M cell cycle arrest and aneuploidy (MDA-MB-231 cells [3]): did not induce G2/M cell cycle arrest and aneuploidy

COc1cc(-n2c(SC)nc3ccccc3c2=O)c(Cl)cc1Cl [compound F]
efficacy in inhibiting Drp1 relative to mdivi-1 (Drp1): poor efficacy | combination effect with cisplatin in enhancing apoptosis (MDA-MB-231 cells [1]; 20 μM of agents alone or in combination with cisplatin): abolished the synergism with cisplatin

antimycin A
G2/M cell cycle arrest and aneuploidy (MDA-MB-231 cells [3]): did not induce G2/M cell cycle arrest and aneuploidy
